Measurements as given in patent publication US20170143674A1, “Use of Glutaryl Histamine for the Treatment of Respiratory Tract Diseases” (LTD "VALENTA-INTELLEKT", priority 2011, published 2017).
Like-named read-outs stand apart in the source and are kept apart here. Marks after values point to notes of the source that are not given here.

Tests used:
[1] = test system: acute rhinosinusitis induced by intranasal administration of formalin; type: in vivo, rat; details: for The number of caliciform cells within 1 mm of the mucosal membrane of the nasal septum: M ± m; for Mucopurulent catarrh (number of rats) / Mucous catarrh (number of rats) / Without changes (number of rats, mucous membrane in the nasal passages, macroscopic): n = 10
Procedure: Activity of glutaryl histamine was studied in an experimental model of acute rhinosinusitis (ARS).
Administration of 20 μl of 7.5% formalin to the rat nasal passages leads to the development of a clinical picture similar to the symptoms of acute rhinosinusitis in a human.
The tested medicament and reference medicaments were administered for 7 days after administration of 7.5% formalin. Normal saline solution was used as placebo. The animals were subjected to euthanasia on day 8 after induction of experimental acute rhinosinusitis by method of air embolism. During necropsy, nasal passages of all animals were sampled. The obtained material was placed into 10% neutral-buffered formalin for further histological analysis.
The mucous and submucous membranes of both nasal passages (respiratory and olfactory regions) of the experimental animals were subjected to a morphological analysis of the specific activity of glutaryl histamine.
After the clinical phase of the experiment, the material derived from the animals was subjected to the standard treatment to prepare histological paraffin sections with a thickness of 3 to 5 μm. The sections were stained with hematoxylin and eosin for a microscopic study. Comparison and histological analysis of changes were performed versus the group of intact rats.
The main pathological processes inherent in experimental acute rhinosinusitis, such as vascular congestion in mucous membrane, hyperplasia and necrosis of the epithelium, the number of caliciform cells within 1 mm of the mucous membrane in the nasal septum, were evaluated by a semi-quantitative method to evaluate the degree of pathophysiological changes in histological, histochemical and morphological studies.
The microscopic analysis of exudative disorder developed in rats with acute rhinitis was aimed at measuring the number of caliciform cells comprising acidic mucus (Table 3).

[2] = test system: Escherichia coli (mouse-adapted strain 4300); assay: animal or person; type: in vivo, mice; details: for Mortality rate (%) / Survival rate (%): tenth day
Procedure: Escherichia coli (mouse-adaptedstrain 4300, Institute collection) was used as an infectious agent. Mice were infected intravenously.
Firstly, there were determined a lethal dose (LD100) of Escherichia coli to be intravenously administered to this line of mice with a certain weight. Fatal cases among mice were registered every day for ten days. […] For this purpose, mice were housed into cages (10 animals per cage) and infected with a lethal dose of Escherichia coli. One hour after each mouse was administered orally levofloxacin in doses of 1, 2, 4, 6, 8, 10, and 12 mg/kg. A group of mice infected with a lethal dose of Escherichia coli without the treatment was considered as a control group. Fatal cases among mice were registered every day for ten days.
The next step of the experiment was to study an effect of combined administration of glutaryl histamine and levofloxacin on a model of E. coli sepsis in mice.
In the experiment, mice were housed in following groups (10 animals per cage):
Glutaryl histamine was administered orally in the corresponding doses to mice of groups 3, 4, 5, 6, 7, and 8 for 5 days. Five day after, all groups of mice were intravenously administered 0.2 ml of Escherichia coli in the lethal dose. […] After infection and administration of levofloxacin, glutaryl histamine was administered to mice of groups 3-8 for additional 5 days. During the experiment, the animals were observed every day, and fatal cases were registered (see Table 14).

LPS-induced tonsillitis = LPS-induced tonsillitis model (E. coli LPS into cervical lymph node); type: in vivo; details: for Area of germinal centers of lymphoid follicles in affected lymph nodes / TP (blood total protein) / Weight difference between affected and intact lymph nodes: M ± m
Procedure: This example is aimed at evaluating the activity of glutaryl histamine on experimental model of tonsillitis. LPS-induced tonsillitis is one of the most adequate models for the study of the pathogenesis, pathomorphological changes and action of pharmacological medicaments on the course of this disease.
Tonsillitis was induced under anesthesia by administration of a solution of E. coli lipopolysaccharide (LPS) (Sigma) in normal physiological solution in a dose of 20 μg/kg, by 10 μl to the right upper lymph node (Inn. Cervicales superficiales). After administration, the lymph nodes were put under superficial neck muscles and then the skin was stitched. The wound was treated with streptocide. The animal was placed into a post-operation cage.
The tested medicament was administered once daily in a given dose strictly at the stated time for three days before the induction of tonsillitis and 10 days after. Normal saline solution was used as placebo.
Immediately after euthanasia, the animals were subjected to necropsy, the affected and intact lymph nodes were removed and weighed.
The lymph nodes derived from the half of animals from each group were being frozen after removal in a refrigerating chamber at −25° C. for 72 hours. Then the lymph nodes were lyophilized.
In a half of animals from each group (7), the affected lymph nodes were subjected to histological analysis. After euthanasia, intact and affected lymph nodes were removed from each animal. […] Sections with a thickness of 4 to 6 μm were prepared from the paraffin blocks, stained with hematoxylin and eosin to reveal typical pathological processes and study required parameters using light-optical microscope Leica DM LS (magnification 200× and 400×).
Weights of intact and affected lymph nodes were compared and the nodes also were lyophilized to evaluate an effect of the medicaments on the swelling degree and adequacy of the model of tonsillitis.
The protein-synthetic function of the liver and a systemic effect of the medicaments on organism were evaluated in total protein (TP) analysis.

## O=C(O)CCCC(=O)NCCc1c[nH]cn1 [glutaryl histamine]
[1]; Glutaryl histamine 9 mg/kg
  The number of caliciform cells within 1 mm of the mucosal membrane of the nasal septum: 29.0 ± 2.7* **
  Mucopurulent catarrh (number of rats): 3
  Mucous catarrh (number of rats): 4
  Without changes (number of rats, mucous membrane in the nasal passages, macroscopic): 3
[1]; Glutaryl histamine 27 mg/kg
  The number of caliciform cells within 1 mm of the mucosal membrane of the nasal septum: 19.6±2.4
  Mucopurulent catarrh (number of rats): 1
  Mucous catarrh (number of rats): 1
  Without changes (number of rats, mucous membrane in the nasal passages, macroscopic): 8
[1]; Glutaryl histamine 27 mg/kg, listed as Glutaryl histamine
  The number of caliciform cells within 1 mm of the mucosal membrane of the nasal septum: 19.6 ± 2.4
[1]; Glutaryl histamine 45 mg/kg
  The number of caliciform cells within 1 mm of the mucosal membrane of the nasal septum: 23.9 ± 1.7* **
  Mucopurulent catarrh (number of rats): 0
  Mucous catarrh (number of rats): 0
  Without changes (number of rats, mucous membrane in the nasal passages, macroscopic): 10
[2]; day 1, glutaryl histamine 15 mg/kg
  died/survived animals: 0/10
[2]; day 1, glutaryl histamine 30 mg/kg
  died/survived animals: 0/10
[2]; day 1, glutaryl histamine 45 mg/kg
  died/survived animals: 0/10
[2]; day 2, glutaryl histamine 15 mg/kg
  died/survived animals: 0/10
[2]; day 2, glutaryl histamine 30 mg/kg
  died/survived animals: 0/10
[2]; day 2, glutaryl histamine 45 mg/kg
  died/survived animals: 1/9
[2]; day 3, glutaryl histamine 15 mg/kg
  died/survived animals: 0/10
[2]; day 3, glutaryl histamine 30 mg/kg
  died/survived animals: 0/10
[2]; day 3, glutaryl histamine 45 mg/kg
  died/survived animals: 1/9
[2]; day 4, glutaryl histamine 15 mg/kg
  died/survived animals: 1/9
[2]; day 4, glutaryl histamine 30 mg/kg
  died/survived animals: 1/9
[2]; day 4, glutaryl histamine 45 mg/kg
  died/survived animals: 3/7
[2]; day 5, glutaryl histamine 15 mg/kg
  died/survived animals: 2/8
[2]; day 5, glutaryl histamine 30 mg/kg
  died/survived animals: 3/7
[2]; day 5, glutaryl histamine 45 mg/kg
  died/survived animals: 5/5
[2]; day 6, glutaryl histamine 15 mg/kg
  died/survived animals: 5/5
[2]; day 6, glutaryl histamine 30 mg/kg
  died/survived animals: 6/4
[2]; day 6, glutaryl histamine 45 mg/kg
  died/survived animals: 7/3
[2]; day 7, glutaryl histamine 15 mg/kg
  died/survived animals: 6/4
[2]; day 7, glutaryl histamine 30 mg/kg
  died/survived animals: 7/3
[2]; day 7, glutaryl histamine 45 mg/kg
  died/survived animals: 8/2
[2]; day 8, glutaryl histamine 15 mg/kg
  died/survived animals: 8/2
[2]; day 8, glutaryl histamine 30 mg/kg
  died/survived animals: 7/3
[2]; day 8, glutaryl histamine 45 mg/kg
  died/survived animals: 9/1
[2]; day 9, glutaryl histamine 15 mg/kg
  died/survived animals: 8/2
[2]; day 9, glutaryl histamine 30 mg/kg
  died/survived animals: 8/2
[2]; day 9, glutaryl histamine 45 mg/kg
  died/survived animals: 9/1
[2]; day 10, glutaryl histamine 15 mg/kg
  died/survived animals: 8/2
[2]; day 10, glutaryl histamine 30 mg/kg
  died/survived animals: 8/2
[2]; day 10, glutaryl histamine 45 mg/kg
  died/survived animals: 9/1
[2]; glutaryl histamine 15 mg/kg
  Mortality rate (%): 80%
  Survival rate (%): 20%
[2]; glutaryl histamine 30 mg/kg
  Mortality rate (%): 80%
  Survival rate (%): 20%
[2]; glutaryl histamine 45 mg/kg
  Mortality rate (%): 90%
  Survival rate (%): 10%
LPS-induced tonsillitis; Glutaryl histamine 9 mg/kg
  Mortality rate (%): 0%
  The number of died animals/initial number of animals in a group: 0/14
  Area of germinal centers of lymphoid follicles in affected lymph nodes: 0.067 ± 0.006* mm^2
  TP (blood total protein): 67.2 ± 1.1 g/L
  Weight difference between affected and intact lymph nodes: 13.0 ± 1.3 mg
LPS-induced tonsillitis; Glutaryl histamine 27 mg/kg
  Mortality rate (%): 0%
  The number of died animals/initial number of animals in a group: 0/14
  Area of germinal centers of lymphoid follicles in affected lymph nodes: 0.048 ± 0.003** mm^2
  TP (blood total protein): 65.0 ± 0.6* ** g/l
  Weight difference between affected and intact lymph nodes: 8.8 ± 1.1* ** mg
LPS-induced tonsillitis; Glutaryl histamine 45 mg/kg
  Area of germinal centers of lymphoid follicles in affected lymph nodes: 0.066 ± 0.007* mm^2
  TP (blood total protein): 65.1 ± 0.8* ** g/l
